Data set [1] has as its system 3T3-L1-GLUT4myc adipocytes. The experiment in a line: GLUT4 translocation: cell surface GLUT4myc by anti-Myc antibody assay in 3T3-L1-GLUT4myc adipocytes. The format is cell-based. Conditions: for Ratio: GLUT4 translocation normalized to vehicle; for A - background / A: Abs. (450 nm): GLUT4 translocation; for GLUT4 translocation (in words): differentiated 3T3-L1-GLUT4myc adipocytes, Fig. 1c. The method, then: The L6-GLUT4myc rat myoblast cell line was obtained from Dr. Amira Klip and Dr. Philip Bilan, through a license granted by The Hospital for Sick Children, 555 University Avenue, Toronto, Ontario, Canada M5G 1 × 8; or purchased from Kerafast, Boston, MA (ESK202)[43]. The 3T3-L1-GLUT4myc fibroblast cell line was provided by Dr. Tomoyuki Yuasa, Tokushima University[44]. L6-GLUT4myc myoblasts were grown in MEMα (32571036, Thermo Fisher Scientific, Waltham, MA) supplemented with 10% FBS and 1% antibiotics, and then induced to differentiate into myotubes in MEMα supplemented with 2% FBS and 1% antibiotics for 5–8 days. 3T3-L1-GLUT4myc fibroblasts were induced to differentiate into adipocytes as described previously,[45] with minor modifications. Briefly, cells were grown to confluence in growth medium: DMEM (10569010, Thermo Fisher Scientific) supplemented with 10% FBS and 1% antibiotics, and then induced to differentiate into adipocytes in growth medium supplemented with 1 μM dexamethasone, 2 μM rosiglitazone, 0.5 mM isobutylmethylxanthine, and 10 μg mL^−1 insulin for 2 days. The adipocytes were then cultured in growth medium supplemented with 10 μg mL^−1 insulin for a few days before being used for the experiments.
Cell surface GLUT4 levels in the L6-GLUT4myc myoblasts and myotubes were determined by antibody binding assay as described previously[43],[44], with minor modifications. Briefly, cells in a 96- or 24-well plate were starved in serum-free MEMα (0.1% BSA and 1% antibiotics) for 3 h and then treated with the indicated concentrations of DS20060511 and/or insulin for 30 min at 37 °C. After fixation with 4% paraformaldehyde, the cells were incubated with 1% glycine in PBS at 4 °C for 10 min, and blocked with 10% normal goat serum and 3% BSA in PBS at 4 °C for 30 min. The cells were then incubated with anti-c-Myc antibody (sc-40, 1:500) diluted with blocking buffer at 4 °C for 1 h, washed with cold PBS(+), incubated with HRP-conjugated anti-mouse IgG diluted with blocking buffer at 4 °C for 30 min, and then washed again. SuperSignal ELISA Pico Chemiluminescent Substrate (Thermo Fisher Scientific) was added and the luminescent signal was measured. To investigate GLUT4 translocation in the 3T3-L1-GLUT4myc adipocytes, the cells were prepared in a 24-well plate, and anti-c-Myc antibody (sc-789, 1:1000), HRP-conjugated anti-rabbit IgG and SIGMAFAST OPD regent (Sigma–Aldrich) were added for optical detection of the cell surface GLUT4myc levels. The GLUT4 translocation activity was normalized to that in the vehicle-treated group.

Another data set relates to AMPKα. The data set is described as follows: AMPKα phosphorylation in triceps surae muscle in vivo. On the set-up: species or system mouse. Conditions: no-exercise condition, 10 mg kg−1, Fig. 6c. The method, then: The tissue sample was homogenized with a Polytron homogenizer and lysed in a lysis buffer (25 mM Tris-HCl, pH 7.4, 100 mM NaF, 50 mM Na4P2O7, 10 mM EGTA, 10 mM EDTA, 10 mM Na3VO4, 1 mM PMSF, and 1% NP-40) on ice, and the lysate was centrifuged at 17,860 × g for 10 min at 4 °C. The supernatant was collected and the protein concentrations were determined by BCA assay (Thermo Fisher Scientific). Immunoprecipitation of IRβ and IRS1 was performed as described previously, using specific antibodies against IRβ (sc-711, Santa Cruz Biotechnology, Dallas, TX), IRS1 (06-248, Merck Millipore, Burlington, MA), and for detection of phosphotyrosine (05-321, Merck Millipore). Five milligrams of the extracts were incubated with specific antibodies against IRS1 for 1 h at 4 °C. Then, protein G-Sepharose was added, followed by incubation for 2 h at 4 °C. After washing three times, the immunocomplexes were subjected to immunoblotting.
Phosphorylated or total protein of IRβ and IRS1 was resolved on 7% SDS-PAGE and analyzed using specific antibodies against IRβ, IRS1, and phosphotyrosine. […] Bound antibodies were detected with HRP-conjugated secondary antibodies using ECL detection reagents (GE Healthcare, Chicago, IL).

A short description of data set [2]: Tissue concentrations 75 min after oral administration. The format is in vivo, mouse. To be noted: for concentration at 75 min: 30 mg/kg, 30 mg/kg oral, individual mice. The method, then: C57BL/6 mice that had been denied access to food overnight received the indicated oral dose of DS20060511, and blood samples were collected from the tail vein at the indicated timepoints. Plasma samples for quantitation of DS20060511 were prepared by centrifugation. Another group of mice received oral administration DS20060511 (30 mg kg^−1) and euthanized 75 min later. The soleus and gastrocnemius muscles, heart, and inguinal WAT were removed and homogenized in water (5 vol.) for quantitation of the drug concentrations. Plasma samples and tissue homogenates were analyzed by LC-MS/MS (Nexera MP System, SHIMADZU, Kyoto, Japan; API4000 System, SCIEX, Framingham, MA). The tissue concentrations of the compound were calculated by assuming the volume of 1 g of tissue is 1 mL. Evaluation of the metabolic stability of the compound to mouse and human cytochrome P450 (CYP) was conducted as follows. The test compound (1 μM) was incubated with pooled liver microsomes (0.1 mg mL^−1) in sodium phosphate buffer (100 mM, pH 7.4) at 37 °C with an NADPH generating system: β-nicotinamide adenine dinucleotide phosphate (β-NADP) 1 mM, D-glucose 6-phosphate (G-6-P) 10 mM, glucose 6-phosphate dehydrogenase (G-6-PDH) 1 U mL^−1, and magnesium chloride 3.3 mM. After 30 min incubation, the reaction was terminated by addition of acetonitrile and samples were analyzed by LC-MS/MS. The results were expressed as the amount of compound remaining (expressed as a percentage), based on the ratio of the relative area to that in the control (without reaction).

Where “and” joins values, the source holds several entries; their conditions need not be identical. Equal entries are not always repeated. Where two headings read alike, the source gives them in different places.

In the case of “Insulin: Insulin (Humulin, Eli Lilly) in the in vivo experiments; Insulin solution human (I9278, Sigma–Aldrich) in the in vitro experiments”, in data set [1] (Insulin 1 nM), the Ratio was 1.07 and 1.09 and 1.12; the A - background was 0.1315 and 0.1345 and 0.1295; the “A: Abs. (450 nm)” value was 0.215 and 0.218 and 0.213. Also, in data set [1] (Insulin 10 nM), the Ratio was 1.31 and 1.33 and 1.41; the A - background is 0.1605 and 0.1705 and 0.1575; the “A: Abs. (450 nm)” value is 0.244 and 0.254 and 0.241. Besides, in data set [1] (Insulin 100 nM), the Ratio is 1.41 and 1.46 and 1.56; the A - background was 0.1755 and 0.1885 and 0.1705; the “A: Abs. (450 nm)” value is 0.259 and 0.272 and 0.254. Further, the “GLUT4 translocation (in words)” value in data set [1] is “increased GLUT4 translocation”.

With `COc1ccc2c(C)c(C(=O)O)ccc2c1C1C2=C(CC(C)(C)CC2=O)OC2=C1C(=O)CC(C)(C)C2` [DS20060511], the “AMPK phosphorylation level in the skeletal muscle” value with AMPKα is “remained unchanged”. Besides, the Ratio is 0.99 and 1.02 and 1.06 in data set [1] (DS20060511 0.1 μM); 0.93 and 1.02 and 0.98 in data set [1] (DS20060511 1 μM); 0.96 and 1.08 and 1.04 in data set [1] (DS20060511 10 μM). Further, the A - background in data set [1] (DS20060511 0.1 μM) is 0.1225 and 0.1275 and 0.1195; in data set [1] (DS20060511 1 μM) it was 0.1225 and 0.1175 and 0.1115; in data set [1] (DS20060511 10 μM), 0.1305 and 0.1255 and 0.1155. For the same compound, the “A: Abs. (450 nm)” value in data set [1] (DS20060511 0.1 μM) is 0.206 and 0.211 and 0.203; in data set [1] (DS20060511 1 μM), 0.206 and 0.201 and 0.195; in data set [1] (DS20060511 10 μM) it was 0.214 and 0.209 and 0.199. For the same compound, in data set [1], the “GLUT4 translocation (in words)” value is “almost no effect on GLUT4 translocation”. In addition, the concentration at 75 min was 8 µM in data set [2] (C57BL/6, mouse, gastrocnemius muscle, po, Gastro. muscle, read-out: Conc. (µM) Gastro.); 21.3 µM in data set [2] (C57BL/6, mouse, heart, po, heart, read-out: Conc. (µM) Heart); 6.8 µM in data set [2] (C57BL/6, mouse, inguinal WAT, po, WAT, read-out: Conc. (µM) WAT); 10.8 µM in data set [2] (C57BL/6, mouse, soleus muscle, po, soleus, read-out: Conc. (µM) Soleus); 9.3 µM and 7.1 µM and 8.8 µM in data set [2] (Gastro. muscle, read-out: Conc. (µM) Gastro.); 5.9 µM and 5.0 µM and 4.1 µM in data set [2] (WAT, read-out: Conc. (µM) WAT). In addition, the concentration at 75 min in data set [2] (heart, read-out: Conc. (µM) Heart) is 21.0 µM and 19.6 µM and 18.0 µM; in data set [2] (soleus, read-out: Conc. (µM) Soleus) it was 13.8 µM and 9.8 µM and 11.1 µM. The “concentrations in tissues (in words)” value in data set [2] (skeletal muscle, WAT, heart, 75 min after oral 30 mg kg−1) was “almost comparable concentrations among the skeletal muscle, WAT, and heart”.
